# According to patent publication US7109193B2, “Tricyclic diazepines tocolytic oxytocin receptor antagonists” (Wyeth, priority 2001, dated 2006):
# Molecular target: T1, human oxytocin receptor (Homo sapiens, UniProt P30559)
# T1 construct: host or cells: CHO cells (pcDNA3.1 vector)
# T1 sequence (P30559 1-389): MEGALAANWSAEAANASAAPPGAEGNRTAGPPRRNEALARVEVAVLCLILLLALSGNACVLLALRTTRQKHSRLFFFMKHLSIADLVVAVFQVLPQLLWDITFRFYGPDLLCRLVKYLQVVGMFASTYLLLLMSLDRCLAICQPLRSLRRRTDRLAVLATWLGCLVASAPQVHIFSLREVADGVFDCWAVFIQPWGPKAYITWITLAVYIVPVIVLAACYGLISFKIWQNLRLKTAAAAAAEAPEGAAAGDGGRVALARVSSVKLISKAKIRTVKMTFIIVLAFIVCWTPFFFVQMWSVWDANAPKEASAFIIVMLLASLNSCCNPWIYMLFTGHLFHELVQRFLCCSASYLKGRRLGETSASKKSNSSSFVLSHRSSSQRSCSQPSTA
# Assay: Oxytocin binding in Chinese Hamster Ovary cell membranes expressing human oxytocin receptors
# Details: 100 nM, CHO cell membranes, [3H]oxytocin, values without parentheses, read-out: OT % inhibition @ 100% nM
row,SMILES,inhibition at 0.1 µM [%]
1,"COc1cc(C(=O)N2Cc3ccc(C(=O)N4CCCN(C)CC4)n3Cc3ccccc32)ccc1-c1ccccc1C [Example 66, {10-[(2-Methoxy-2′-methyl[1,1′-biphenyl]-4-yl)carbonyl]-10,11-dihydro-5H-pyrrolo[2,1-c][1,4]benzodiazepin-3-yl}(4-methyl-1,4-diazepan-1-yl)methanone]",87
2,"COc1ccccc1-c1ccc(C(=O)N2Cc3ccc(C(=O)n4ccnc4)n3Cc3ccccc32)cc1C [Example 292, 1H-Imidazol-1-yl-{10-[(2′-methoxy-2-methyl[1,1′-biphenyl]-4-yl)carbonyl]-10,11-dihydro-5H-pyrrolo[2,1-c][1,4]benzodiazepin-3-yl}methanone]",69
3,"COc1cc(C(=O)N2Cc3ccc(C(=O)NCCN4CCCCC4)n3Cc3ccccc32)ccc1-n1c(C)ccc1C [Example 314, 10-[4-(2,5-Dimethyl-1H-pyrrol-1-yl)-3-methoxybenzoyl]-N-[2-(1-piperidinyl)ethyl]-10,11-dihydro-5H-pyrrolo[2,1-c][1,4]benzodiazepine-3-carboxamide]",19
4,"COc1ccccc1-c1ccc(C(=O)N2Cc3ccc(C(=O)N[C@@H]4CN5CCC4CC5)n3Cc3ccccc32)cc1C [Example 295, N-[(3S)-1-Azabicyclo[2.2.2]oct-3-yl]-10-[(2′-methoxy-2-methyl[1,1′-biphenyl]-4-yl)carbonyl]-10,11-dihydro-5H-pyrrolo[2,1-c][1,4]benzodiazepine-3-carboxamide]",79
5,"COc1ccccc1-c1ccc(C(=O)N2Cc3ccc(C(=O)N4CCN(CCCN(C)C)CC4)n3Cc3ccccc32)cc1OC [Example 254, {10-[(2,2′-Dimethoxy[1,1′-biphenyl]-4-yl)carbonyl]-10,11-dihydro-5H-pyrrolo[2,1-c][1,4]benzodiazepin-3-yl}{4-[3-(dimethylamino)propyl]-1-piperazinyl}methanone]",66
6,"COc1cccc(-c2cc(OC)c(C(=O)N3Cc4ccc(C(=O)N[C@@H](Cc5c[nH]cn5)C(N)=O)n4Cc4ccccc43)cc2Cl)c1 [Example 287, N-[(1S)-2-Amino-1-(1H-imidazol-4-ylmethyl)-2-oxoethyl]-10-[(6-chloro-3,3′-dimethoxy[1,1′-biphenyl]-4-yl)carbonyl]-10,11-dihydro-5H-pyrrolo[2,1-c][1,4]benzodiazepine-3-carboxamide]",88
7,"COc1cc(C(=O)N2Cc3ccc(C(=O)N4CCN(CCCN(C)C)CC4)n3Cc3ccccc32)ccc1-n1c(C)ccc1C [Example 320, {4-[3-(Dimethylamino)propyl]-1-piperazinyl}{10-[4-(2,5-dimethyl-1H-pyrrol-1-yl)-3-methoxybenzoyl]-10,11-dihydro-5H-pyrrolo[2,1-c][1,4]benzodiazepin-3-yl}methanone]",34

# Now from value to compound:
row,inhibition at 0.1 µM [%],SMILES
1,71,"COc1cc(C(=O)N2Cc3ccc(C(=O)N4CCN(CCCN(C)C)CC4)n3Cc3ccccc32)ccc1-c1cccc2ccccc12 [Example 253, {4-[3-(Dimethylamino)propyl]-1-piperazinyl}{10-[3-methoxy-4-(1-naphthyl)benzoyl]-10,11-dihydro-5H-pyrrolo[2,1-c][1,4]benzodiazepin-3-yl}methanone]"
2,68,"Cc1ccccc1-c1ccc(C(=O)N2Cc3ccc(C(=O)N4CCCN(C)CC4)n3Cc3ccccc32)cc1 [Example 65, {10-[(2′-Methyl[1,1′-biphenyl]-4-yl)carbonyl]-10,11-dihydro-5H-pyrrolo[2,1-c][1,4]benzodiazepin-3-yl}(4-methyl-1,4-diazepan-1-yl)methanone]"
3,65,"Cc1ccccc1-c1ccc(C(=O)N2Cc3ccc(C(=O)NCCCN(C)C)n3Cc3ccccc32)cc1 [Example 76, N-[3-(Dimethylamino)propyl]-10-[(2′-methyl[1,1′-biphenyl]-4-yl)carbonyl]-10,11-dihydro-5H-pyrrolo[2,1-c][1,4]benzodiazepine-3-carboxamide]"
4,89,"COc1cc(C(=O)N2Cc3ccc(C(=O)N4CCN(C)CC4)n3Cc3ccccc32)ccc1-c1ccccc1C [Example 53, {10-[(2-Methoxy-2′-methyl[1,1′-biphenyl]-4-yl)carbonyl]-10,11-dihydro-5H-pyrrolo[2,1-c][1,4]benzodiazepin-3-yl}(4-methyl-1-piperazinyl)methanone]"
